Several values for one entry are separate records, joined by “and”; a condition that tells them apart may be missing. Equal values may be shown once. Read-outs that look alike come from different tables or passages of the source.
Legend:
[1] = test system: Ba/F3 cells expressing KIF5B–RET^V804M; assay: Growth inhibition assay in Ba/F3 cells (CellTiter-Glo, 72 h); type: cell-based; settings: Mus musculus, BaF3, Ba/3-KIF5B-RET-V804M; replicate sets
[2] = test system: TT cells; assay: Growth inhibition (alamarBlue, 96 h); type: cell-based, human; settings: for raw viability signal (Source Data Fig. 3b-c): replicate sets
[3] = test system: LUAD-0086AS3 cells; assay: Growth inhibition (alamarBlue, 96 h); type: cell-based, human; settings: for raw viability signal (Source Data Fig. 3b-c): LUAD-0086AS3 (n=1, 3 replicates)
[4] = test system: LUAD-0087AS2 PDX; assay: PDX efficacy study; settings: pralsetinib 30 mg/kg BID
[5] = test system: Ba/F3-RET^M918T; assay: Growth inhibition assay in Ba/F3 cells (CellTiter-Glo, 72 h); type: cell-based; settings: Mus musculus, BaF3, 72 h, read-out: GI50 value (Mean ± SD), Ba/F3-RET^M918T, CellTiter-Glo, 72 h
[6] = test system: Ba/F3-CCDC6::RET; assay: as above; type: cell-based
[7] = test system: TT cells (RET C634W); assay: Dose-response western blotting, EC50 for inhibition of protein phosphorylation; type: cell-based; settings: Homo sapiens
[8] = test system: Ba/F3 cells expressing KIF5B–RET^G810C; assay: Growth inhibition assay in Ba/F3 cells (CellTiter-Glo, 72 h); type: cell-based; settings: replicate Sets 1-3
[9] = test system: HBECp53-RET cells (CCDC6-RET fusion); assay: Growth inhibition (alamarBlue, 96 h); type: cell-based, human; settings: for raw viability signal (Source Data Fig. 3b-c): HBEC-RET, replicate sets
[10] = test system: LUAD-0087AS2 cells; assay: Growth inhibition (alamarBlue, 96 h); type: cell-based, human; settings: for raw viability signal (Source Data Fig. 3b-c): LUAD-0087AS2, replicate sets
[11] = Homo sapiens, 96 h, read-out: IC50 for Inhibition of Growth (95% CI)

Structure (SMILES): CO[C@]1(C(=O)N[C@@H](C)c2ccc(-n3cc(F)cn3)nc2)CC[C@H](c2nc(C)cc(Nc3cc(C)[nH]n3)n2)CC1 [Pralsetinib]
- GI50 [1]: 8.92 nM
- raw viability signal (Source Data Fig. 3b-c) ([2]; 0.01 nM): 22929.2 and 25490.7 and 28433.6 and 13300.2 and 25151.2
- raw viability signal (Source Data Fig. 3b-c) ([2]; 0.1 nM): 22974.2 and 25164.4 and 33337.3 and 15066.6 and 24111.4
- raw viability signal (Source Data Fig. 3b-c) ([2]; 1 nM): 21557.9 and 25049.8 and 31833.5 and 13551.8 and 21692.4
- raw viability signal (Source Data Fig. 3b-c) ([2]; 10 nM): 15259.3 and 23182.3 and 22444.5 and 12016.9 and 18286.5
- raw viability signal (Source Data Fig. 3b-c) ([2]; 100 nM): 9067.36 and 11673.9 and 13386.9 and 6206.3 and 13339.4
- raw viability signal (Source Data Fig. 3b-c) ([2]; 1000 nM): 7976.19 and 8542.52 and 11087 and 4402.24 and 11387.8
- raw viability signal (Source Data Fig. 3b-c) ([2]; 10000 nM): 7016.43 and 7739.61 and 10148.3 and 3836.13 and 9483.47
- IC50 [2, 11]: 30 nM
- IC50 [3, 11]: 121 nM
- raw viability signal (Source Data Fig. 3b-c) ([3]; 0.01 nM): 31309.7 and 31098.7 and 34263.2
- raw viability signal (Source Data Fig. 3b-c) ([3]; 0.1 nM): 29924.8 and 30921.2 and 29063.2
- raw viability signal (Source Data Fig. 3b-c) ([3]; 1 nM): 27745.6 and 30045.6 and 27962.9
- raw viability signal (Source Data Fig. 3b-c) ([3]; 10 nM): 27211.8 and 27719.7 and 26448.1
- raw viability signal (Source Data Fig. 3b-c) ([3]; 100 nM): 16795 and 17102.3 and 12766
- raw viability signal (Source Data Fig. 3b-c) ([3]; 1000 nM): 14016.5 and 12908.6 and 9876.85
- raw viability signal (Source Data Fig. 3b-c) ([3]; 10000 nM): 5069.85 and 4707.96 and 4562.26
- Change in tumor volume (% from base line) ([4]; Fig. 6a LUAD-0087AS2, individual animals): -36.557% and -40.331% and -44.442% and -50.767%
- Area Under Curve Mean ([4]; Fig. 6a LUAD-0087AS2 tumor growth): -1718
- GI50 [5]: 1.62 ± 0.77 nM
- GI50 ([6]; BaF3/CCDC6-RET, 72 h, read-out: GI50 value (Mean ± SD), Ba/F3-CCDC6::RET, CellTiter-Glo, 72 h): 19.9 ± 10.6 nM
- GI50 ([6]; read-out: GI50 values, Ba/F3-CCDC6::RET, individual sets (replicate experiments)): 11.8 nM and 31.9 nM and 15.9 nM
- EC50 ([7]; read-out: EC50 for Inhibition of Protein Phosphorylation (95% CI), AKT S473, 2 h, densitometry): 1.5 nM
- EC50 ([7]; read-out: EC50 for Inhibition of Protein Phosphorylation (95% CI), ERK1/2 T202/Y204, 2 h, densitometry): 2 nM
- EC50 ([7]; read-out: EC50 for Inhibition of Protein Phosphorylation (95% CI), MEK1/2 S217/S221, 2 h, densitometry): 4.3 nM
- EC50 ([7]; read-out: EC50 for Inhibition of Protein Phosphorylation (95% CI), P70 RSK T421/S424, 2 h, densitometry): 0.4 nM
- EC50 ([7]; read-out: EC50 for Inhibition of Protein Phosphorylation (95% CI), RET Y905, 2 h, densitometry): 1 nM
- EC50 ([7]; read-out: EC50 for Inhibition of Protein Phosphorylation (95% CI), S6RP S235/S236, 2 h, densitometry): 0.7 nM
- GI50 ([8]; Ba/3-KIF5B-RET-G810C): 44.4 nM
- GI50 ([8]; Mus musculus, BaF3, Ba/3-KIF5B-RET-G810C): 66.9 nM
- raw viability signal (Source Data Fig. 3b-c) ([9]; 0.01 nM): 15373.7 and 12510.4 and 10530.7 and 16787.4
- raw viability signal (Source Data Fig. 3b-c) ([9]; 0.1 nM): 15070.3 and 13088.9 and 11587.4 and 17702.2
- raw viability signal (Source Data Fig. 3b-c) ([9]; 1 nM): 15214.6 and 13110.8 and 10795 and 16054.2
- raw viability signal (Source Data Fig. 3b-c) ([9]; 10 nM): 6804.19 and 10276.4 and 9347.81 and 15758.2
- raw viability signal (Source Data Fig. 3b-c) ([9]; 100 nM): 3516.93 and 4294.46 and 3038.53 and 6985.58
- raw viability signal (Source Data Fig. 3b-c) ([9]; 1000 nM): 2132.67 and 2668.84 and 1165.86 and 3483.36
- raw viability signal (Source Data Fig. 3b-c) ([9]; 10000 nM): 830.793 and 1030.6 and 876.114 and 1589.72
- IC50 ([9]; Homo sapiens, 96 h, read-out: IC50 for Inhibition of Growth (95% CI), HBECp53-RET, alamarBlue, 96 h): 35 nM
- IC50 [10, 11]: 24 nM
- raw viability signal (Source Data Fig. 3b-c) ([10]; 0.01 nM): 10767.7 and 15151.6 and 17255.6 and 15692.7
- raw viability signal (Source Data Fig. 3b-c) ([10]; 0.1 nM): 11083.5 and 15670.9 and 15636 and 16225.5
- raw viability signal (Source Data Fig. 3b-c) ([10]; 1 nM): 10977.2 and 15832.3 and 16084.8 and 16863
- raw viability signal (Source Data Fig. 3b-c) ([10]; 10 nM): 7788.62 and 8365.43 and 13487.5 and 12530.5
- raw viability signal (Source Data Fig. 3b-c) ([10]; 100 nM): 2806.08 and 5716.79 and 2099.37 and 2602.78
- raw viability signal (Source Data Fig. 3b-c) ([10]; 1000 nM): 2132.43 and 5081.65 and 1620.29 and 1608.1
- raw viability signal (Source Data Fig. 3b-c) ([10]; 10000 nM): 2211.28 and 4121.33 and 1386.59 and 1376.18
